Patent publication US7812031B2, “Pyrimidine derivatives as orexin receptor antagonists” (Sanofi-Aventis, priority 2004, dated 2010)
pIC50: −log10 of the molar value.

Assays:
[1] = target: T1, human recombinant orexin-1 (hr-OX-1) receptor (Homo sapiens, UniProt O43613); experiment: hr-125I-orexin-A radioligand competition binding, orexin-1 receptor; details: displacement of 125I-orexin-A, CHO-hr-OX-1 plasmamembranes, 25° C., 60 minutes; read-out: Orex-1 IC50
T1 construct: expressed in transfected cells; host or cells: CHO (CHO-hr-OX-1 cells), purified plasma membrane fraction
T1 sequence (O43613 1-425): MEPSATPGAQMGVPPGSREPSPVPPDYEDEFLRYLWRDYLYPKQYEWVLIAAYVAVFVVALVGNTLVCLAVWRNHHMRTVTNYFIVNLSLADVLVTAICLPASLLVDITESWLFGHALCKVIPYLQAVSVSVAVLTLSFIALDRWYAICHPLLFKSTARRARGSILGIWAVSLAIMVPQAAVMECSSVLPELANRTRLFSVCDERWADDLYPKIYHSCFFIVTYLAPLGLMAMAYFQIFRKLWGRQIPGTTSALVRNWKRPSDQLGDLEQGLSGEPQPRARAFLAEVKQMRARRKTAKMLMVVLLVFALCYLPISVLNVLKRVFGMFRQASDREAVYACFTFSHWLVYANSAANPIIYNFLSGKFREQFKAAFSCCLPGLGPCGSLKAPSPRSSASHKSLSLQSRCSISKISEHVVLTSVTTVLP
Description: (§1) In vitro radioligand binding assays were used for determination of the affinities of the compounds for both the orexin-1 and orexin-2 receptors.
(§2) In the frame of hr-^125I-orexin-A radioligand competition (displacement) experiments a fixed concentration of hr-^125I-orexin-A is incubated with increasing concentrations of unlabeled test compound in the presence of highly purified plasmamembranes bearing either the human recombinant orexin-1 (hr-OX-1) or the human recombinant orexin-2 (hr-OX-2) receptors. Specific binding of hr-^125I-orexin-A to plasmamembranes is measured at each concentrations of the unlabeled compound and thus a competition curve is generated. The concentration of unlabeled compound displacing 50% of specific binding (IC50) is calculated. In case of competitive interaction the binding affinity constant of the unlabeled compound (K1) is calculated according to the Cheng-Prusoff equation (K1=IC50/(1+L*/KD). Affinity of unlabeled compound for the receptor is equal to 1/K1.
(§3) Culturing the Chinese hamster ovarian cells expressing human recombinant orexin-1 or orexin-2 receptor proteins (CHO-hr-OX-1 or CHO-hr-OX-2 cells) was carried out in cell culture medium (MEM medium, supplemented with 40 mg/l prolin, 20 mg/l gentamycin, 300 mg/l geneticin, 10% dialysed fetal calf serum).
(§4) Adherent cells were plated into Greiner flasks (175 cm^2). 4-6 days later culture medium was removed and cells were scarped in calcium- and magnesium-free phosphate buffered saline (PBS, 20 ml/flask). The cell suspension was centrifuged at 1,000 g for 5 minutes (4° C.). The resulting pellet was resuspended and homogenized with a teflon pestle (4° C.), then layered onto a discontinuous sucrose gradient and centrifuged at 105,000 g. Plasmamembrane fraction accumulated in the interface between 14 and 34% sucrose layers was separated and pelleted by a further centrifugation step at 105,000 g for 60 min (4° C.). The final pellet was resuspended in binding assay buffer and stored at −80° C. up to the day of radioligand binding experiment.
(§5) For ^125I-orexin-A competition binding studies, aliquots of cell membrane fractions containing either hr-orexin-1 or hr-orexin-2 receptors were incubated with ^125I-orexin-A in binding assay buffer at 25° C. for 60 minutes. Nonspecific binding was defined by 1 μM hr-orexin-A in both cases.
(§6) Test compounds were dissolved at a concentration of 1 mM in dimethylsulfoxide (DMSO). Serial dilution series were prepared from stock solutions (100% DMSO) with binding assay buffer in such a way that each samples contained a final concentration of 1% of DMSO in the receptor binding reaction mixture. After the incubation, samples were filtered through Whatman GF/C glass fibre filters using a SKATRON cell harvester, and the filters were washed with 5 ml of ice-cold buffer The radioactivity remained on the filter was counted in a gamma counter (Wallac Automatic Gamma Counter 1470 Wizard).

[2] = target: T2, human recombinant orexin-2 (hr-OX-2) receptor (Homo sapiens, UniProt O43614); experiment: hr-125I-orexin-A radioligand competition binding, orexin-2 receptor; details: displacement of 125I-orexin-A, CHO-hr-OX-2 plasmamembranes, 25° C., 60 minutes; read-out: Orex-2 IC50
T2 construct: expressed in transfected cells; host or cells: CHO (CHO-hr-OX-2 cells), purified plasma membrane fraction
T2 sequence (O43614 1-444): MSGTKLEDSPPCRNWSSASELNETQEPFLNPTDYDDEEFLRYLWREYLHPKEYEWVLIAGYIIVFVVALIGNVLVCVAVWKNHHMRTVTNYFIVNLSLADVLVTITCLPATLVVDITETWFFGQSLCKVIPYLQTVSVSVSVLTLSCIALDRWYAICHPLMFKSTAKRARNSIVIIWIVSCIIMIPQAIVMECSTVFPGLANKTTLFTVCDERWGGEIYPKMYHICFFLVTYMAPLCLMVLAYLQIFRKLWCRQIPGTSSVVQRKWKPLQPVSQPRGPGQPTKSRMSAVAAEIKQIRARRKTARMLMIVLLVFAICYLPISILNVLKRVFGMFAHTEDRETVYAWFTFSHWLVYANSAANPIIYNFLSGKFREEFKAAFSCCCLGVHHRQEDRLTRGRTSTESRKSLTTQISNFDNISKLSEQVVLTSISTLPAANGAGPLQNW
Description: as §1, §2, §3, §4, §5, §6

| SMILES | melting point [°C] | pIC50 [1] | pIC50 [2] |
| --- | --- | --- | --- |
| CN(Cc1ccccc1)c1ncc(C(=O)N2CCCCC2C(O)c2ccccc2)c(-c2ccccc2)n1 (racemic) | – | 7.96 | 5.17 |
| CN(CC(O)c1cccc(OC(=O)C(C)(C)C)c1)C(=O)c1cnc(N(C)C)nc1-c1ccccc1Cl (centres unmarked) [2,2-Dimethylpropionic acid 3-{2-[(2-dimethylamino-4-(2-chlorophenyl)pyrimidine-5-carbonyl)methylamino]1-hydroxyethyl}phenyl ester] | – | 7.52 | 5.54 |
| COc1ccccc1C(=O)Nc1cccc(C(O)CN(C)C(=O)c2cnc(N(C)C)nc2-c2ccccc2)c1 (centres unmarked) [2-Dimethylamino-4-phenylpyrimidin-5-carboxylic acid {2-hydroxy-2-[3-(2-methoxy-benzoylamino)phenyl]ethyl}methylamide] | – | 7.82 | 6.49 |
| CN(CC(O)c1cccc(OCc2ccccc2)c1)C(=O)c1cnc(N(C)C)nc1-c1ccccc1 (centres unmarked) [2-Dimethylamino-4-phenylpyrimidine-5-carboxylic acid [2-(3-benzyloxyphenyl)-2-hydroxyethyl]methylamide] | – | 7.52 | 5.44 |
| CC(C(O)c1ccccc1)N(C)C(=O)c1cnc(NCc2ccccn2)nc1-c1ccccc1 (centres unmarked) [4-Phenyl-2-[(pyridin-2-ylmethyl)amino]pyrimidin-5-carboxylic acid (2-hydroxy-1-methyl-2-phenylethyl)methylamide] | – | 7.92 | 5.27 |
| CN(CC(O)c1cccc(OCc2ccccc2)c1)C(=O)c1cnc(N(C)C)nc1-c1ccc(Cl)c(Cl)c1 (centres unmarked) [Example 59, 2-Dimethylamino-4-(3,4-dichlorophenyl)pyrimidine-5-carboxylic acid [2-(3-benzyloxyphenyl)-2-hydroxyethyl]methylamide] | 68 to 70 | – | – |

Second part, the compound after the results:

| melting point [°C] | pIC50 [1] | pIC50 [2] | SMILES |
| --- | --- | --- | --- |
| 85 to 87 | – | – | CN(CC(O)c1cccc(O)c1)C(=O)c1cnc(NCc2cccs2)nc1-c1ccccc1 (centres unmarked) (hydrate or solvate) [Example 17, 4-Phenyl-2-[(thiophen-2-ylmethyl)amino]pyrimidine-5-carboxylic acid [2-hydroxy-2-(3-hydroxyphenyl)ethyl]methylamide] |
| – | 7.66 | 5.24 | Cc1ccccc1-c1nc(N(C)Cc2ccccc2)ncc1C(=O)N(C)CC(O)c1cccc(O)c1 (centres unmarked) [2-(Benzylmethylamino)-4-(2-methylphenyl)pyrimidine-5-carboxylic acid [2-hydroxy-2-(3-hydroxyphenyl)ethyl]methylamide] |
